This is an account of results in US8404650B2, “Methods of treating cancer with doxazolidine and prodrugs thereof” (priority 2005, dated 2013).

The nature of series [1]: Functional measure of hydrolysis: pre-hydrolysis in RPMI medium or human serum, then growth of MCF-7/Adr cells. In kind it is cell-based. Particulars: read out by growth of MCF-7/Adr cells; for half-life at 10 µM: RPMI 1640 medium, RPMI 1640, 37° C., estimated from FIG. 5A, read-out: Half-life in cell culture media. As to the method:
Hydrolysis of Doxaz or DoxF in RPMI medium was performed by dissociating the cells with trypsin/EDTA, counting and then suspending the cells in growth media to a concentration of 5×10^3 cells/mL. This cell suspension was dispensed in 200 μL aliquots (1000 cells/well) into the inside wells of 96-well tissue culture plates. Plates were then incubated for 24 h at 37° C. in a humidified atmosphere of 5% CO2, and 95% air. The medium was replaced with 180 μL of growth medium prior to addition of the drug. RPMI media (no serum added) was divided into 5 mL aliquots in conical vials and heated to 37° C. in a constant temperature bath. Doxaz and DoxF were dissolved in DMSO at a concentration of 1 mM equivalents. The concentration was then corrected by measuring the solution absorbance at 480 nm (ε=11,500 M^−1 cm^−1). Drug solution (50 μl) was added to an individual conical vial and the drug was allowed to hydrolyze (at 10 μM) for 0, 10, 20, 30, 45, 60, 75 or 90 min. Experiments were performed such that all hydrolysis times would end simultaneously. After hydrolysis, 20 μL of the drug solution was added to a lane of wells on the 96-well plate to give a final concentration of 1 μM equivalents (sum of Doxorubicin, Doxaz and/or DoxF) for treatment of cells. Additionally, two lanes were treated with 20 μL of growth medium containing 1% sterile DMSO for a control. The cells were incubated at 37° C. for 3 h, at which time the drug solutions were replaced with 200 μL of fresh growth media. The cells were then incubated for 5 days, and the extent of colony formation was determined using a crystal violet staining assay measuring optical density at 588 and 770 nm.
Hydrolysis of DoxF in RPMI medium or 100% human serum was performed as described above except drug hydrolysis was performed at 1 μM equivalents and drug treatment was at 100 nM equivalents. During drug treatment, the medium was either 90% RPMI/10% FBS or 90% RPMI/10% human serum. During cell growth, the medium was 90% RPMI/10% FBS. […]

The next series concerns SHP-77. Nature of the series: Growth inhibition of SHP-77 small cell lung cancer cells. The format is cell-based. Conditions: 24 h drug treatment, crystal violet. The text has this: SHP-77 small cell lung cancer cells were also of interest because they express modest amounts of both enzymes. Inhibition of the growth of cardiomyocytes was used as a measure of cardiotoxicity, and inhibition of the growth of Vero cells, green monkey kidney cells, was again used as another measure of toxicity to normal cells.

Each structure is given as a SMILES string.

For the molecule `COc1cccc2c1C(=O)c1c(O)c3c(c(O)c1C2=O)C[C@@](O)(C(=O)CO)C[C@@H]3OC1CC2C(OCN2CN2COC3C(C)OC(O[C@H]4C[C@](O)(C(=O)CO)Cc5c(O)c6c(c(O)c54)C(=O)c4c(OC)cccc4C6=O)CC32)C(C)O1` (some centres unmarked) [DoxF, Doxoform, reference compound], the half-life at 1 µM in series [1] (100% human serum, 100% pooled human serum, 37° C., start 100 nM equivalents, estimated from FIG. 5B) is approximately 3 min. Besides, the half-life at 10 µM in series [1] is approximately 1.5 min.

As for `COc1cccc2c1C(=O)c1c(O)c3c(c(O)c1C2=O)C[C@@](O)(C(=O)CO)C[C@@H]3O[C@H]1C[C@H](N)[C@H](O)[C@H](C)O1` [Doxorubicin, reference compound], the IC50 in the series on SHP-77 (Homo sapiens, SHP77) was 126 nM.

Consider `COc1cccc2c1C(=O)c1c(O)c3c(c(O)c1C2=O)C[C@@](O)(C(=O)CO)C[C@@H]3O[C@H]1C[C@@H]2NCO[C@@H]2[C@H](C)O1` [Doxaz, Doxazolidine], for which the half-life at 10 µM in series [1] was approximately 1 min.

For the molecule `CCCCCOC(=O)Nc1ccc(COC(=O)N2COC3C(C)OC(OC4CC(O)(C(=O)CO)Cc5c(O)c6c(c(O)c54)C(=O)c4c(OC)cccc4C6=O)CC32)cc1` (centres unmarked) [Pentyl PABC-Doxaz, Pentyl 4-(N-doxazolidinylcarbonyloxymethyl)phenylcarbamate], the “Cell growth inhibition IC50, SHP-77” value in the series with SHP-77 is given as −7.3 ± 0.1 log of molar concentrations.
